What was measured:
E. coli = assay: DnaK mRNA level after heat-shock induction in bacteria exposed to antibiotic, real-time RT-PCR; format: cell-based, Escherichia coli; conditions: 4 or 8 ug/mL, 120 min at 37° C. in LB broth, heat-shock 42° C. 3 min before E-lysis
Experimental: Unless any variation was specified, RT-PCR reaction of 5 μL volume was prepared by mixing 1 μL of sample, 1 μL of Kapa 2G Robust Hotstart 5× buffer (KK5517, KAPA Biosystems), 0.05 μL of Kapa 2G Robust Hotstart DNA polymerase (kk5517, KAPA Biosystems), 0.2 μL of reverse transcriptase (GoScript, A5004 Promega), 0.04 uL of 100 mM dNTPs (10297-117, Life Technologies), 0.25 uL of DMSO, 0.13 uL of SYBR Green (1/375 dilution, S7563 Invitrogen), 0.5 μL each of respective forward and reverse primers (2.5 μM) and 1.34 μL of RNAase free water. In indicated experiments, for PCR reaction of 5 μL volume the composition was the same as RT-PCR reaction except 0.2 μL of RNAase free water was added instead of reverse transcriptase. Real time RT-PCR targeting rRNA or tmRNA was performed by reverse transcription at 50° C. for 5 min, inactivation of reverse transcriptase and activation of hotstart DNA polymerase at 97° C. for 5 min, followed by 35 to 40 cycles of cDNA amplification (denaturation at 95° C. for 5 sec, annealing at 63° for 7 sec, and extension at 72° C. for 10 sec) in Eco Real Time PCR system (Illumina) using a double stranded DNA binding fluorescent dye, SYBR Green. […]
As it is observed, the exposure of microbial cells to the antibiotic norfloxacin reduced the quantity of target mRNA by approximately 8-16 times (corresponding to 3-4 PCR cycles).

Klebsiella pneumoniae = assay: Antimicrobial sensitivity testing of bacteria in partially lysed then enriched whole blood, real-time RT-PCR of rRNA and tmRNA; format: cell-based; conditions: 8 ug/mL final concentration, 2 hours incubation at 37° C. after 2 hours pre-incubation, K. pneumoniae spiked whole blood enriched with TSB
Experimental: Unless any variation is specified, the following example pretreatment procedure which includes blood cell lysis step followed by 4 wash cycles was performed in experiments which required pretreatment of blood samples. 10 μL of Fluorinert™ was added to 2 mL siliconized microcentrifuge tubes (T3531, Sigma), followed by the addition of 500 μL of the blood cell lysis reagent. The blood cell lysis reagent consisted of 75 mg/mL saponin, 15 mg/mL SPS and 1% PPG. EDTA-treated human whole blood from healthy volunteers of 1 mL spiked with microbial cells was added to the tube containing the blood cell lysis reagent and the Fluorinert™, and mixed by inverting ten times and vortexing at low speeds for 10 sec. The final concentrations of the components in the mixture were 25 mg/mL saponin, 5 mg/mL SPS and 0.33% PPG. The tubes were centrifuged at 12,000 rpm for 1 min and 1.35 mL of the supernatant was removed, leaving 150 uL of the liquid supernatant, Fluorinert™ and the sedimented microbial I cells. The first wash cycles was performed by adding 1.35 mL of 0.8 mM phosphate buffer to the remaining liquid supernatant of 150 uL as described above, mixing by vortexing at low speed for 10 sec, centrifugation at 12,000 rpm for 1 min and removal of 1.35 mL of the supernatant, leaving 150 μL of the liquid supernatant, the Fluorinert™ and the sedimented microbial. […]

Structure (SMILES): CCn1cc(C(=O)O)c(=O)c2cc(F)c(N3CCNCC3)cc21 [norfloxacin]
- reduction of target mRNA (DnaK) signal in PCR cycles after exposure to the antibiotic (E. coli): 3-4 PCR cycles
- reduction of the quantity of target mRNA (DnaK) after exposure to the antibiotic (E. coli): 8-16 times
- rRNA and tmRNA RT-PCR signal in response to the antibiotic compared to without antibiotic (Non-treated) culture (Klebsiella pneumoniae): reduction of rRNA and tmRNA
